Assay results: US9708318B2, “Bicyclic heterocycles as FGFR4 inhibitors” (Incyte Corporation, priority 2015, dated 2017)
Read-outs that look alike come from different tables or passages of the source.

Legend:
FGFR3 enzyme = FGFR3 enzyme (Homo sapiens (Human), UniProt P22607); experiment: FGFR Enzymatic Assay (FRET peptide phosphorylation), FGFR3; format: biochemical; conditions: for IC50: read-out: FGFR3 IC50; for FGFR1/FGFR3 IC50 ratio / FGFR4/FGFR3 IC50 ratio: FGFR3 selectivity
Procedure: (§1) The inhibitor potency of the exemplified compounds was measured in an enzyme assay that measures peptide phosphorylation using FRET measurements to detect product formation. Inhibitors were serially diluted in DMSO and a volume of 0.5 μL was transferred to the wells of a 384-well plate.
(§2) GraphPad prism3 was used to analyze the data.

FGFR4 = FGFR4 (Homo sapiens (Human), UniProt P22455); experiment: FGFR Enzymatic Assay (FRET peptide phosphorylation), FGFR4; format: biochemical
FGFR4, sequence (P22455 22-802): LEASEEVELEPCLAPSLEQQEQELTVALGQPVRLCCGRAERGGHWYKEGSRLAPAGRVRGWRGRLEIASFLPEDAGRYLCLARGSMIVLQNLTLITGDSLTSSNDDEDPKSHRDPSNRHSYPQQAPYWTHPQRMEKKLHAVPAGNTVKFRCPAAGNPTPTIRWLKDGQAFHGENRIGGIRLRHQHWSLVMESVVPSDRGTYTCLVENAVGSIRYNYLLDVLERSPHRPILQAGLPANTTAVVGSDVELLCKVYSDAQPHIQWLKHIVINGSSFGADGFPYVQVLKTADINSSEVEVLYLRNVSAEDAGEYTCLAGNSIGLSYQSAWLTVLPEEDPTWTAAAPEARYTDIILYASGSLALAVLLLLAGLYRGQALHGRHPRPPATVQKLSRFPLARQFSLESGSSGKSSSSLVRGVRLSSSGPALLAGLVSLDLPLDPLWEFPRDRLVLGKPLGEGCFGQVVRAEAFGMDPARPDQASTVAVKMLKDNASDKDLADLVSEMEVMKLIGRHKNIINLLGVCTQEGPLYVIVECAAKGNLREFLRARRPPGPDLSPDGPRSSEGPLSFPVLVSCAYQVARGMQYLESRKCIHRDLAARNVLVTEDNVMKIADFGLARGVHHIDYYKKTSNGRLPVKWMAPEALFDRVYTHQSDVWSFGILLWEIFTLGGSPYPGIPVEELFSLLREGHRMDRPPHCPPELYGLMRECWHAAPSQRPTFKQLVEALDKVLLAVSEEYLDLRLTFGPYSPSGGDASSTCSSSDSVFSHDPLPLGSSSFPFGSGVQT
Procedure: as §1
(§3) The enzymes were purchased from Millipore or Invitrogen.
as §2

FGFR2 = FGFR2 (Homo sapiens (Human), UniProt P21802); experiment: FGFR Enzymatic Assay (FRET peptide phosphorylation), FGFR2; format: biochemical
FGFR2, sequence (P21802 22-821): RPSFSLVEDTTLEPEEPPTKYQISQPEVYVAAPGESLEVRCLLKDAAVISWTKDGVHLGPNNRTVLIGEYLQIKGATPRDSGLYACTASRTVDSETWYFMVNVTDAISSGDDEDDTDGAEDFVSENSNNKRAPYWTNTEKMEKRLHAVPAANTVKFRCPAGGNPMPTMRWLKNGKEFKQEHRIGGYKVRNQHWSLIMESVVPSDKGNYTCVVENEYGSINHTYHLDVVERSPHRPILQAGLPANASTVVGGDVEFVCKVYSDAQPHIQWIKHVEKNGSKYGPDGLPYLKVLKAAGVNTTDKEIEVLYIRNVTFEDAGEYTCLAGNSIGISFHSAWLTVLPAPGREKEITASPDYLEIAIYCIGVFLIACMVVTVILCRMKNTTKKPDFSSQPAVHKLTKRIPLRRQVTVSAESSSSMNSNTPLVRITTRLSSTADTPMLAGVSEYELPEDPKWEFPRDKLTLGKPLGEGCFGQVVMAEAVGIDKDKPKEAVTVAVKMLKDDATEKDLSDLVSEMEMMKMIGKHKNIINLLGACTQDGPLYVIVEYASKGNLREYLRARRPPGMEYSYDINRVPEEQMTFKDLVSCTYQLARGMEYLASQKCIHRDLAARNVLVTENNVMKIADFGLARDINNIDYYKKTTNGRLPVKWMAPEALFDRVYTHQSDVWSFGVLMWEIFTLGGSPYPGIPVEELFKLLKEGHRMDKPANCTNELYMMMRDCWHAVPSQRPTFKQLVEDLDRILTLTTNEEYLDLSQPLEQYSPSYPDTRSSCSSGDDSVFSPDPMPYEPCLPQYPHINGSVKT
Procedure: as §1, §3, §2

FGFR1 = FGFR1 (Homo sapiens (Human), UniProt P11362); experiment: FGFR Enzymatic Assay (FRET peptide phosphorylation), FGFR1
FGFR1, sequence (P11362 22-822): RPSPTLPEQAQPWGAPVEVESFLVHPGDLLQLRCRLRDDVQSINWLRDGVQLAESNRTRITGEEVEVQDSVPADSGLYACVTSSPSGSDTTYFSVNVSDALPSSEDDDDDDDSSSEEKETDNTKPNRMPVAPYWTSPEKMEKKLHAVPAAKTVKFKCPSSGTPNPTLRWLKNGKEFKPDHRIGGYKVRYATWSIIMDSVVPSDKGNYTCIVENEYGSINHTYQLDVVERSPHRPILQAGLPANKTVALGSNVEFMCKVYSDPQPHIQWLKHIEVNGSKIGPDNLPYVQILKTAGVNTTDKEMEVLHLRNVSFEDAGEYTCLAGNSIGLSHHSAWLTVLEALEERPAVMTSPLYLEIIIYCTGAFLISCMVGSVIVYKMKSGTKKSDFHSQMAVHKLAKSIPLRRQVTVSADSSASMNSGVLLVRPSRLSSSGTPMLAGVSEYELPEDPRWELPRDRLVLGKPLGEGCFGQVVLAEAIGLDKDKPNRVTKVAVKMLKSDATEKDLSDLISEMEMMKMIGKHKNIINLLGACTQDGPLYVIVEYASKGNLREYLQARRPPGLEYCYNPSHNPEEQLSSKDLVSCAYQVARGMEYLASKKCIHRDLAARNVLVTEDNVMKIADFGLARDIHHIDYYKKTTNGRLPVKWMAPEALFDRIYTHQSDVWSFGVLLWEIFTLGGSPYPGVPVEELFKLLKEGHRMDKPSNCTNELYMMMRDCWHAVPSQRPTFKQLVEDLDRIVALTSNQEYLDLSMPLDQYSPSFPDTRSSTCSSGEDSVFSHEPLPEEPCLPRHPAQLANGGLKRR

[1] = pre-incubated for 5 to 10 minutes
[2] = FGFR1 IC50 (nM), pre-incubated for 5 to 10 minutes
[3] = FGFR1 IC50 (nM), pre-incubated for 4 hours
[4] = read-out: FGFR1 IC50, pre-incubated for 4 hours

FGFR3 enzyme, sequence (P22607 23-806): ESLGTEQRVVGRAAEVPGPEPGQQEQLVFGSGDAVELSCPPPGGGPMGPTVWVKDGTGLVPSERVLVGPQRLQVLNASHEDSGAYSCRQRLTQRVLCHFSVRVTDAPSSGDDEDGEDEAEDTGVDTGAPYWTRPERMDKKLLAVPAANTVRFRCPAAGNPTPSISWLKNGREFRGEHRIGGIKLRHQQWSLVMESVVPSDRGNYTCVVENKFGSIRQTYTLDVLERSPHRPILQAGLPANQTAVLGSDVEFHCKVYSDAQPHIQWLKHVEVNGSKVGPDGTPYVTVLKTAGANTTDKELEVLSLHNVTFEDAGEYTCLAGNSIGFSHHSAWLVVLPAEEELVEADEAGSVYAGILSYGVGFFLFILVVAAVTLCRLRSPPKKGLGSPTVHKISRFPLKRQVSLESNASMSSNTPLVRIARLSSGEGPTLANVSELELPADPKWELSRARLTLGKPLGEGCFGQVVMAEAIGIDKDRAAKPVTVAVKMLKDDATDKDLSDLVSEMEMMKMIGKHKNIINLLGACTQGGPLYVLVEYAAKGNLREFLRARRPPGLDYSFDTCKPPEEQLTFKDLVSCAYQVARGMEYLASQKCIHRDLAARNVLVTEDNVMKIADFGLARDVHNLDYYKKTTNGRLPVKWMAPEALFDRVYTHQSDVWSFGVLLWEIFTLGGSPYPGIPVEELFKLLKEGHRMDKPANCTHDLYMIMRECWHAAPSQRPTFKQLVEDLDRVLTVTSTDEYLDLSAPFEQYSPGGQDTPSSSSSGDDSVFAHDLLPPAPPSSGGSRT

Row | SMILES | IC50 (FGFR3 enzyme; [1]) | IC50 (FGFR4; [1]) | IC50 (FGFR2; [1]) | IC50 (FGFR1; [2]) | IC50 (FGFR1; read-out: FGFR1 IC50, pre-incubated for 5 to 10 minutes) | FGFR1/FGFR3 IC50 ratio (FGFR3 enzyme; pre-incubated for 4 hours) | FGFR4/FGFR3 IC50 ratio (FGFR3 enzyme; pre-incubated for 4 hours) | IC50 (FGFR3 enzyme; pre-incubated for 4 hours) | IC50 (FGFR4; pre-incubated for 4 hours) | IC50 (FGFR2; pre-incubated for 4 hours) | IC50 (FGFR1; [3]) | IC50 (FGFR1; [4])
1 | COc1cc(OC)c(F)c(N2Cc3cnc(-c4cn(C)nc4C)cc3N(Cc3cnn(CC4CCCO4)c3)C2=O)c1F (stereo not shown) [Example 127, 3-(2,6-difluoro-3,5-dimethoxyphenyl)-7-(1,3-dimethyl-1H-pyrazol-4-yl)-1-((1-((tetrahydrofuran-2-yl)methyl)-1H-pyrazol-4-yl)methyl)-3,4-dihydropyrido[4,3-d]pyrimidin-2(1H)-one] | 10 to 30 nM | 30 to 200 nM | 10 to 30 nM | 30 to 200 nM | – | – | – | – | – | – | – | –
2 | COc1cc(OC)c(F)c(N2Cc3cnc(-c4cn(C)nc4C)cc3N(Cc3cnn(CC(F)F)c3)C2=O)c1F [Example 128, 3-(2,6-difluoro-3,5-dimethoxyphenyl)-1-((1-(2,2-difluoroethyl)-1H-pyrazol-4-yl)methyl)-7-(1,3-dimethyl-1H-pyrazol-4-yl)-3,4-dihydropyrido[4,3-d]pyrimidin-2(1H)-one] | < 10 nM | 10 to 30 nM | < 10 nM | – | < 10 nM | – | – | – | – | – | – | –
3 | COc1cc(OC)c(F)c(N2Cc3cnc(-c4cn(C)nc4C)cc3N(c3cn[nH]c3)C2=O)c1F [Example 129, 3-(2,6-difluoro-3,5-dimethoxyphenyl)-7-(1,3-dimethyl-1H-pyrazol-4-yl)-1-(1H-pyrazol-4-yl)-3,4-dihydropyrido[4,3-d]pyrimidin-2(1H)-one] | – | – | – | – | – | >5 | >10 | < 10 nM | 30 to 200 nM | < 10 nM | 10 to 30 nM | –
4 | COc1cc(OC)c(F)c(N2Cc3cnc(-c4cn(C)nc4C)cc3N(c3cnn(C4CC4)c3)C2=O)c1F [Example 130, 1-(1-cyclopropyl-1H-pyrazol-4-yl)-3-(2,6-difluoro-3,5-dimethoxyphenyl)-7-(1,3-dimethyl-1H-pyrazol-4-yl)-3,4-dihydropyrido[4,3-d]pyrimidin-2(1H)-one] | – | – | – | – | – | >5 | >5 | 10 to 30 nM | 30 to 200 nM | 10 to 30 nM | 30 to 200 nM | –
5 | CCn1cc(N2C(=O)N(c3c(F)c(OC)cc(OC)c3F)Cc3cnc(-c4cn(C)nc4C)cc32)cn1 [Example 131, 3-(2,6-difluoro-3,5-dimethoxyphenyl)-7-(1,3-dimethyl-1H-pyrazol-4-yl)-1-(1-ethyl-1H-pyrazol-4-yl)-3,4-dihydropyrido[4,3-d]pyrimidin-2(1H)-one] | – | – | – | – | – | >3 | >10 | 10 to 30 nM | > 200 nM | 10 to 30 nM | 30 to 200 nM | –
6 | COc1cc(OC)c(F)c(N2Cc3cnc(-c4cn(C)nc4C)cc3N(c3ccc4cn[nH]c4c3)C2=O)c1F [Example 133, 3-(2,6-difluoro-3,5-dimethoxyphenyl)-7-(1,3-dimethyl-1H-pyrazol-4-yl)-1-(1H-indazol-6-yl)-3,4-dihydropyrido[4,3-d]pyrimidin-2(1H)-one] | – | – | – | – | – | >3 | >5 | < 10 nM | 30 to 200 nM | < 10 nM | 10 to 30 nM | –
7 | COc1cc(OC)c(F)c(N2Cc3cnc(-c4cn(C)nc4C)cc3N(c3ccc4[nH]ncc4c3)C2=O)c1F [Example 134, 3-(2,6-difluoro-3,5-dimethoxyphenyl)-7-(1,3-dimethyl-1H-pyrazol-4-yl)-1-(1H-indazol-5-yl)-3,4-dihydropyrido[4,3-d]pyrimidin-2(1H)-one] | – | – | – | – | – | >3 | >5 | < 10 nM | 30 to 200 nM | < 10 nM | 10 to 30 nM | –
8 | COc1cc(OC)c(F)c(N2Cc3cnc(-c4ccc(C5(C#N)CCC5)nc4)cc3N(c3ccncn3)C2=O)c1F [Example 135, 1-(5-(3-(2,6-difluoro-3,5-dimethoxyphenyl)-2-oxo-1-(pyrimidin-4-yl)-1,2,3,4-tetrahydropyrido[4,3-d]pyrimidin-7-yl)pyridin-2-yl)cyclobutanecarbonitrile] | – | – | – | – | – | >5 | >10 | < 10 nM | 30 to 200 nM | < 10 nM | 30 to 200 nM | –
9 | COc1cc(OC)c(F)c(N2Cc3cnc(-c4ccc(C5(C#N)CCC5)nc4)cc3N(C3CCC3)C2=O)c1F [Example 136, 1-(5-(1-cyclobutyl-3-(2,6-difluoro-3,5-dimethoxyphenyl)-2-oxo-1,2,3,4-tetrahydropyrido[4,3-d]pyrimidin-7-yl)pyridin-2-yl)cyclobutanecarbonitrile] | 10 to 30 nM | 30 to 200 nM | 10 to 30 nM | 30 to 200 nM | – | – | – | – | – | – | – | –
10 | COc1cc(OC)c(F)c(N2Cc3cnc(-c4ccc(C5(C#N)CCC5)nc4)cc3N(c3ccccn3)C2=O)c1F [Example 137, 1-(5-(3-(2,6-difluoro-3,5-dimethoxyphenyl)-2-oxo-1-(pyridin-2-yl)-1,2,3,4-tetrahydropyrido[4,3-d]pyrimidin-7-yl)pyridin-2-yl)cyclobutanecarbonitrile] | 10 to 30 nM | 30 to 200 nM | 10 to 30 nM | 30 to 200 nM | – | – | – | – | – | – | – | –
11 | COc1cc(OC)c(F)c(N2Cc3cnc(-c4ccc(C5(C#N)CCC5)nc4)cc3N(c3cccnc3)C2=O)c1F [Example 138, 1-(5-(3-(2,6-difluoro-3,5-dimethoxyphenyl)-2-oxo-1-(pyridin-3-yl)-1,2,3,4-tetrahydropyrido[4,3-d]pyrimidin-7-yl)pyridin-2-yl)cyclobutanecarbonitrile] | 10 to 30 nM | 30 to 200 nM | 10 to 30 nM | 30 to 200 nM | – | – | – | – | – | – | – | –
12 | COCCN1C(=O)N(c2c(F)c(OC)cc(OC)c2F)Cc2cnc(-c3ccc(C4(C#N)CCC4)nc3)cc21 [Example 139, 1-(5-(3-(2,6-difluoro-3,5-dimethoxyphenyl)-1-(2-methoxyethyl)-2-oxo-1,2,3,4-tetrahydropyrido[4,3-d]pyrimidin-7-yl)pyridin-2-yl)cyclobutanecarbonitrile] | < 10 nM | 30 to 200 nM | < 10 nM | 30 to 200 nM | – | – | – | – | – | – | – | –
13 | COc1cc(OC)c(F)c(N2Cc3cnc(-c4ccc(C5(C#N)CCC5)nc4)cc3N(CC3CC3)C2=O)c1F [Example 140, 1-(5-(1-(cyclopropylmethyl)-3-(2,6-difluoro-3,5-dimethoxyphenyl)-2-oxo-1,2,3,4-tetrahydropyrido[4,3-d]pyrimidin-7-yl)pyridin-2-yl)cyclobutanecarbonitrile] | 10 to 30 nM | 30 to 200 nM | < 10 nM | 30 to 200 nM | – | – | – | – | – | – | – | –
14 | COc1cc(OC)c(F)c(N2Cc3cnc(-c4cnn(C5CCN(S(C)(=O)=O)C5)c4)cc3C3(CC3)C2=O)c1F (stereo not shown) [Example 147, 2′-(2,6-difluoro-3,5-dimethoxyphenyl)-6′-(1-(1-(methylsulfonyl)pyrrolidin-3-yl)-1H-pyrazol-4-yl)-1′H-spiro[cyclopropane-1,4′-[2,7]naphthyridin]-3′(2′H)-one] | – | – | – | – | – | >10 | >3 | < 10 nM | < 10 nM | < 10 nM | 10 to 30 nM | –
15 | COc1cc(OC)c(F)c(N2Cc3cnc(-c4cnn(CCC5CCN(S(C)(=O)=O)CC5)c4)cc3C3(CC3)C2=O)c1F [Example 148, 2′-(2,6-difluoro-3,5-dimethoxyphenyl)-6′-(1-(2-(1-(methylsulfonyl)piperidin-4-yl)ethyl)-1H-pyrazol-4-yl)-1′H-spiro[cyclopropane-1,4′-[2,7]naphthyridin]-3′(2′H)-one] | – | – | – | – | – | >10 | >3 | < 10 nM | 10 to 30 nM | 10 to 30 nM | 30 to 200 nM | –
16 | COc1cc(OC)c(F)c(N2Cc3cnc(-c4cnn(C5CCN(C(C)=O)C5)c4)cc3C3(CC3)C2=O)c1F (stereo not shown) [Example 150, 6′-(1-(1-acetylpyrrolidin-3-yl)-1H-pyrazol-4-yl)-2′-(2,6-difluoro-3,5-dimethoxyphenyl)-1′H-spiro[cyclopropane-1,4′-[2,7]naphthyridin]-3′(2′H)-one] | – | – | – | – | – | >5 | >5 | < 10 nM | < 10 nM | < 10 nM | – | < 10 nM
17 | COc1cc(OC)c(F)c(N2Cc3cnc(-c4cnn(CCCN5CCOCC5)c4)cc3C3(CC3)C2=O)c1F [Example 151, 2′-(2,6-difluoro-3,5-dimethoxyphenyl)-6′-(1-(3-morpholinopropyl)-1H-pyrazol-4-yl)-1′H-spiro[cyclopropane-1,4′-[2,7]naphthyridin]-3′(2′H)-one] | – | – | – | – | – | >5 | >5 | < 10 nM | < 10 nM | < 10 nM | – | < 10 nM
18 | COc1cc(OC)c(F)c(N2Cc3cnc(-c4cn(CC#N)nc4C)cc3C3(CC3)C2=O)c1F [Example 153, 2-(4-(2′-(2,6-difluoro-3,5-dimethoxyphenyl)-3′-oxo-2′,3′-dihydro-1′H-spiro[cyclopropane-1,4′-[2,7]naphthyridine]-6′-yl)-3-methyl-1H-pyrazol-1-yl)acetonitrile] | – | – | – | – | – | >5 | >3 | < 10 nM | 10 to 30 nM | 10 to 30 nM | 30 to 200 nM | –
19 | COc1cc(OC)c(F)c(N2Cc3cnc(-c4cn(C5CCN(CC#N)C5)nc4C)cc3C3(CC3)C2=O)c1F (stereo not shown) [Example 154, 2-(3-(4-(2′-(2,6-difluoro-3,5-dimethoxyphenyl)-3′-oxo-2′,3′-dihydro-1′H-spiro[cyclopropane-1,4′-[2,7]naphthyridine]-6′-yl)-3-methyl-1H-pyrazol-1-yl)pyrrolidin-1-yl)acetonitrile] | – | – | – | – | – | >5 | >3 | 10 to 30 nM | 30 to 200 nM | 10 to 30 nM | 30 to 200 nM | –
